Data taken from patent publication US20240174618A1, “SUBSTITUTED (2-HETEROARYLOXYPHENYL)SULFONATES, SALTS THEREOF AND THEIR USE AS HERBICIDAL AGENTS” (Bayer Aktiengesellschaft, priority 2021, published 2024).

What was measured:
Assay type in all cases: in vivo
[1] = system: Triticum aestivum (TRZAS); test: F. Post-emergence effect on useful plants, TRZAS; conditions: useful plant
Description: (§1) Seeds of monocotyledonous and dicotyledonous weeds and crop plants were placed in sandy loam in plastic or organic planting pots, covered with soil and cultivated in a greenhouse under controlled growth conditions. 2 to 3 weeks after sowing, the test plants were treated at the one-leaf stage. The compounds of the invention, formulated in the form of wettable powders (WP) or as emulsion concentrates (EC), were then sprayed onto the green parts of the plants as aqueous suspension or emulsion with addition of 0.5% additive at a water application rate of 600 l/ha (converted). After the test plants had been kept in the greenhouse under optimum growth conditions for about 3 weeks, the activity of the preparations was rated visually in comparison to untreated controls.
(§2) For example, • 100% efficacy=plants have died, • 0% action=like untreated control plants.
(§3) Tables F1a to F4 below show the effects of selected compounds of the general formula (I) according to table 1 on various useful plants at an application rate corresponding to 320 g/ha or less, which were obtained by the experimental procedure mentioned above.

Veronica persica (VERPE) [2] = test: E. Herbicidal post-emergence efficacy, VERPE
Description: as §1, §2
(§4) Tables E1a to E12b below show the effects of selected compounds of the general formula (I) according to table 1 on various harmful plants at an application rate corresponding to 320 g/ha or less, which were obtained by the experimental procedure mentioned above.

Zea mays (ZEAMX) [3] = test: F. Post-emergence effect on useful plants, ZEAMX; conditions: useful plant
Description: as §1, §2, §3

[4] = system: Amaranthus retroflexus (AMARE); test: E. Herbicidal post-emergence efficacy, AMARE
Description: as §1, §2, §4

[5] = system: Amaranthus retroflexus (AMARE); test: C. Herbicidal pre-emergence efficacy, AMARE; conditions: scored after about 3 weeks
From the text: (§5) Seeds of monocotyledonous and dicotyledonous weed plants and crop plants were placed in plastic or organic planting pots and covered with soil. The compounds of the invention, formulated in the form of wettable powders (WP) or as emulsion concentrates (EC), were then applied to the surface of the covering soil as aqueous suspension or emulsion with addition of 0.5% additive at a water application rate equivalent to 600 l/ha (converted). After the treatment, the pots were placed in a greenhouse and kept under good growth conditions for the test plants. After about 3 weeks, the efficacy of the preparations was scored visually in comparison with untreated controls as percentages. For example, • 100% efficacy=plants have died, • 0% efficacy=like untreated control plants.
(§6) Tables C1a to C14b below show the effects of selected compounds of the general formula (I) according to table 1 on various harmful plants at an application rate corresponding to 320 g/ha or less, which were obtained by the experimental procedure mentioned above.

Viola tricolor (VIOTR) [6] = test: E. Herbicidal post-emergence efficacy, VIOTR
Description: as §1, §2, §4

[7] = system: Triticum aestivum (TRZAS); test: D. Pre-emergence effect on useful plants, TRZAS; conditions: useful plant
From the text: as §5
(§7) Tables D1a to D5b below show the effects of selected compounds of the general formula (I) according to table 1 on various useful plants at an application rate corresponding to 320 g/ha or less, which were obtained by the experimental procedure mentioned above.

Kochia scoparia (KCHSC) [8] = test: E. Herbicidal post-emergence efficacy, KCHSC
Description: as §1, §2, §4

Zea mays (ZEAMX) [9] = test: D. Pre-emergence effect on useful plants, ZEAMX; conditions: useful plant
From the text: as §5, §7

Kochia scoparia (KCHSC) [10] = test: C. Herbicidal pre-emergence efficacy, KCHSC; conditions: application rate 320 g/ha
From the text: as §5, §6

[11] = system: Echinochloa crus-galli (ECHCG); test: E. Herbicidal post-emergence efficacy, ECHCG; conditions: application rate 320 g/ha
Description: as §1, §2, §4

Veronica persica (VERPE) [12] = test: C. Herbicidal pre-emergence efficacy, VERPE; conditions: 320 g/ha, scored after about 3 weeks
From the text: as §5, §6

[13] = system: Abutilon theophrasti (ABUTH); test: E. Herbicidal post-emergence efficacy, ABUTH; conditions: application rate 320 g/ha
Description: as §1, §2, §4

[14] = system: Echinochloa crus-galli (ECHCG); test: C. Herbicidal pre-emergence efficacy, ECHCG; conditions: 320 g/ha, scored after about 3 weeks
From the text: as §5, §6

[15] = system: Digitaria sanguinalis (DIGSA); test: C. Herbicidal pre-emergence efficacy, DIGSA; conditions: scored after about 3 weeks
From the text: as §5, §6

Viola tricolor (VIOTR) [16] = test: C. Herbicidal pre-emergence efficacy, VIOTR
From the text: as §5, §6

[17] = system: Pharbitis purpurea (PHBPU); test: E. Herbicidal post-emergence efficacy, PHBPU; conditions: application rate 320 g/ha
Description: as §1, §2, §4

Setaria viridis (SETVI) = test: C. Herbicidal pre-emergence efficacy, SETVI; conditions: 320 g/ha, scored after about 3 weeks
From the text: as §5, §6

Lolium rigidum (LOLRI) = test: C. Herbicidal pre-emergence efficacy, LOLRI; conditions: 320 g/ha, scored after about 3 weeks
From the text: as §5, §6

Row | SMILES | Post-emergence efficacy against TRZAS in % ([1]; application rate 80 g/ha) [%] | Post-emergence efficacy against TRZAS in % ([1]; application rate 320 g/ha) [%] | Post-emergence efficacy against VERPE in % (Veronica persica (VERPE) [2]; application rate 80 g/ha) [%] | Post-emergence efficacy against VERPE in % (Veronica persica (VERPE) [2]; application rate 320 g/ha) [%] | Post-emergence efficacy against ZEAMX in % (Zea mays (ZEAMX) [3]; application rate 80 g/ha) [%] | Post-emergence efficacy against ZEAMX in % (Zea mays (ZEAMX) [3]; application rate 320 g/ha) [%] | Post-emergence efficacy against AMARE in % ([4]; application rate 80 g/ha) [%] | Post-emergence efficacy against AMARE in % ([4]; application rate 320 g/ha) [%] | Pre-emergence efficacy against AMARE ([5]; 320 g/ha) [%] | Post-emergence efficacy against VIOTR in % (Viola tricolor (VIOTR) [6]; application rate 320 g/ha) [%] | Post-emergence efficacy against KCHSC in % (Kochia scoparia (KCHSC) [8]; application rate 320 g/ha) [%] | Pre-emergence efficacy against ZEAMX in % (Zea mays (ZEAMX) [9]; application rate 80 g/ha) [%] | other results
1 | N#Cc1cccc(Oc2ncc(Cl)cn2)c1OS(=O)(=O)CCC(F)(F)F [Example I-82] | 0 | 0 | 100 | 100 | 0 | 20 | 90 | 100 | 80 | 80 | 90 | 0 | Post-emergence efficacy against VIOTR in % (Viola tricolor (VIOTR) [6]; application rate 80 g/ha): 80%; Pre-emergence efficacy against TRZAS in % ([7]; application rate 80 g/ha): 0%; Pre-emergence efficacy against TRZAS in % ([7]; application rate 320 g/ha): 0%; Post-emergence efficacy against KCHSC in % (Kochia scoparia (KCHSC) [8]; application rate 80 g/ha): 90%
2 | Cc1cccc(Oc2ncc(Cl)cn2)c1OS(=O)(=O)CC=C(Cl)Cl [Example I-83] | 0 | 20 | 80 | 100 | 10 | 20 | 90 | 100 | 100 | 100 | 80 | 0 | Pre-emergence efficacy against KCHSC in % (Kochia scoparia (KCHSC) [10]): 80%; Post-emergence efficacy against ECHCG in % [11]: 80%; Pre-emergence efficacy against VERPE (Veronica persica (VERPE) [12]): 90%; Pre-emergence efficacy against AMARE ([5]; 80 g/ha): 80%; Post-emergence efficacy against ABUTH in % [13]: 80%; Pre-emergence efficacy against ECHCG [14]: 90%; Pre-emergence efficacy against DIGSA ([15]; 80 g/ha): 80%; Pre-emergence efficacy against DIGSA ([15]; 320 g/ha): 100%; Pre-emergence efficacy against VIOTR in % (Viola tricolor (VIOTR) [16]; application rate 80 g/ha): 90%; Pre-emergence efficacy against VIOTR in % (Viola tricolor (VIOTR) [16]; application rate 320 g/ha): 100%; Pre-emergence efficacy against ZEAMX in % (Zea mays (ZEAMX) [9]; application rate 320 g/ha): 0%; Post-emergence efficacy against PHBPU in % [17]: 100%; Pre-emergence efficacy against SETVI (Setaria viridis (SETVI)): 100%; Pre-emergence efficacy against LOLRI (Lolium rigidum (LOLRI)): 80%
